Source: patent publication US11377425B1, “Small molecule modulators of IL-17” (LEO Pharma A/S, priority 2018, dated 2022)

molecular target: T1, human IL-17AA (Homo sapiens, UniProt Q16552); assay: IL-8 release assay in human epithelial keratinocytes adult (HEKa); format: cell-based; details: HEKa cells, 3 ng/mL HEK-human IL-17AA + 10 ng/mL human TNFalpha; read-out: Rel EC50 IL-8 release assay
T1 construct: host or cells: HEK (human embryonic kidney) cells
T1 sequence (Q16552 24-155): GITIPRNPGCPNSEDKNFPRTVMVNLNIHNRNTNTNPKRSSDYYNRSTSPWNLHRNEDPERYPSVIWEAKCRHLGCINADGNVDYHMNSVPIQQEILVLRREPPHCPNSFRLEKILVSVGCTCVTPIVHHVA
How it was run: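 Adult human epidermal keratinocytes stimulated 68-72 h at 37 °C with 3 ng/mL HEK-derived human IL-17AA plus 10 ng/mL TNF-alpha (final) in the presence of compound; TNF-alpha alone defines 100% inhibition. Secreted IL-8 measured by HTRF as percent of controls; relative IC50/Emax from four-parameter fit (r^2>0.9), cytotoxicity by PrestoBlue.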

Row | EC50 [nM] | Compound
1 | < 100 | Cc1n[nH]c(C)c1-c1ccc(NC(=O)[C@@H](NC(=O)c2ccnn2CCC(F)F)C(C2CC2)C2CC2)cc1 [Example 215, N-[(1S)-1-(dicyclopropylmethyl)-2-[4-(3,5-dimethyl-1H-pyrazol-4-yl)anilino]-2-oxo-ethyl]-2-(3,3-difluoropropyl)pyrazole-3-carboxamide]
2 | 100 to 1000 | Cc1n[nH]c(C)c1-c1ccc(NC(=O)[C@@H](NC(=O)c2ccn[nH]2)C(C2CC2)C2CC2)cc1 [Example 216, N-[(1S)-1-(dicyclopropylmethyl)-2-[4-(3,5-dimethyl-1H-pyrazol-4-yl)anilino]-2-oxo-ethyl]-1H-pyrazole-5-carboxamide]
3 | < 100 | Cc1n[nH]c(C)c1-c1ccc(NC(=O)[C@@H](NC(=O)c2ccnn2C(CF)CF)C(C2CC2)C2CC2)cc1 [Example 217]
4 | < 100 | Cc1n[nH]c(C)c1-c1ccc(NC(=O)[C@@H](NC(=O)c2ccnn2C(C)CF)C(C2CC2)C2CC2)cc1 (stereo partly drawn) [Example 218, N-[(1S)-1-(dicyclopropylmethyl)-2-[4-(3,5-dimethyl-1H-pyrazol-4-yl)anilino]-2-oxo-ethyl]-2-(2-fluoro-methyl-ethyl)pyrazole-3-carboxamide]
5 | < 100 | Cc1n[nH]c(C)c1-c1ccc(NC(=O)[C@@H](NC(=O)c2ccnn2C2CCOC2)C(C2CC2)C2CC2)cc1 (stereo partly drawn) [Example 219, N-[(1S)-1-(dicyclopropylmethyl)-2-[4-(3,5-dimethyl-1H-pyrazol-4-yl)anilino]-2-oxo-ethyl]-2-tetrahydrofuran-3-yl-pyrazole-3-carboxamide]
6 | < 100 | Cc1n[nH]c(C)c1-c1ccc(NC(=O)[C@@H](NC(=O)c2ccnn2C)C(C)C2CCCCC2)cc1 (stereo partly drawn) [Example 220, N-[(1S)-2-cyclohexyl-1-[[4-(3,5-dimethyl-1H-pyrazol-4-yl)phenyl]carbamoyl]propyl]-2-methyl-pyrazole-3-carboxamide]
7 | < 100 | Cc1n[nH]c(C)c1-c1ccc(NC(=O)[C@@H](NC(=O)c2ccnn2C(C)C2CC2)C(C2CC2)C2CC2)cc1 (stereo partly drawn) [Example 222, 2-(1-cyclopropylethyl)-N-[(1S)-1-(dicyclopropylmethyl)-2-[4-(3,5-dimethyl-1H-pyrazol-4-yl)anilino]-2-oxo-ethyl]pyrazole-3-carboxamide]
8 | > 1000 | Cc1n[nH]c(C)c1-c1ccc(NC(=O)[C@H](CC2CCC2)NC(=O)c2ccnn2C)cc1 [Example 229, N-[(1S)-1-(cyclobutylmethyl)-2-[4-(3,5-dimethyl-1H-pyrazol-4-yl)anilino]-2-oxo-ethyl]-2-methyl-pyrazole-3-carboxamide]
9 | < 100 | Cc1n[nH]c(C)c1-c1ccc(NC(=O)[C@@H](NC(=O)c2ccnn2C)C2CCCCC2(C)C)cc1 (stereo partly drawn) [Example 230, N-[(1S)-1-(2,2-dimethylcyclohexyl)-2-[4-(3,5-dimethyl-1H-pyrazol-4-yl)anilino]-2-oxo-ethyl]-2-methyl-pyrazole-3-carboxamide]
10 | < 100 | Cc1n[nH]c(C)c1-c1ccc(NC(=O)[C@@H](NC(=O)c2ccnn2C)C2CCCC2(C)C)cc1 (stereo partly drawn) [Example 231, N-[(1S)-1-(2,2-dimethylcyclopentyl)-2-[4-(3,5-dimethyl-1H-pyrazol-4-yl)anilino]-2-oxo-ethyl]-2-methyl-pyrazole-3-carboxamide]
11 | 100 to 1000 | Cc1n[nH]c(C)c1-c1ccc(NC(=O)C(NC(=O)c2ccnn2C)C2CC3CC3C2)cc1 [Example 233, N-[(1S)-1-[(1R,55)-3-bicyclo[3.1.0]2-[4-(3,5-dimethyl-1H-pyrazol-4-yl)anilino]-2-oxo-ethyl]-2-methyl-pyrazole-3-carboxamide]
12 | 100 to 1000 | Cc1n[nH]c(C)c1-c1ccc(NC(=O)[C@@H](NC(=O)c2ccnn2C)C2CCC(C)(C)CC2)cc1 [Example 238, N-[(1S)-1-(4,4-dimethylcyclohexyl)-2-[4-(3,5-dimethyl-1H-pyrazol-4-yl)anilino]-2-oxo-ethyl]-2-methyl-pyrazole-3-carboxamide]
13 | 100 to 1000 | Cc1n[nH]c(C)c1-c1ccc(NC(=O)[C@@H](NC(=O)c2ccnn2C)[C@@H]2CCCC3(CC3)C2)cc1 [Example 241, N-[(1S)-2-[4-(3,5-dimethyl-1H-pyrazol-4-yl)anilino]-2-oxo-1-[(7R)-spiro[2.5]octan-7-yl]ethyl]-2-methyl-pyrazole-3-carboxamide]
14 | > 1000 | Cc1n[nH]c(C)c1-c1ccc(NC(=O)[C@H](CC2CC2)NC(=O)c2ccnn2C)cc1 [Example 243, N-[(1S)-1-(cyclopropylmethyl)-2-[4-(3,5-dimethyl-1H-pyrazol-4-yl)anilino]-2-oxo-ethyl]-2-methyl-pyrazole-3-carboxamide]
15 | < 100 | Cc1n[nH]c(C)c1-c1ccc(NC(=O)[C@@H](NC(=O)c2ccnn2C)C(C(C)C)C(C)C)cc1 [Example 244]
16 | 100 to 1000 | Cc1n[nH]c(C)c1-c1ccc(NC(=O)[C@@H](NC(=O)c2ccnn2C)C2C(C)(C)C2(C)C)cc1 [Example 245, N-[(1S)-2-[4-(3,5-dimethyl-1H-pyrazol-4-yl)anilino]-2-oxo-1-(2,2,3,3-tetramethylcyclopropyl)ethyl]-2-methyl-pyrazole-3-carboxamide]

Row | EC50 [nM] | Compound
17 | 100 to 1000 | Cc1n[nH]c(C)c1-c1ccc(NC(=O)[C@@H](NC(=O)c2ccnn2C)C2[C@H]3CCCC[C@@H]23)cc1 (stereo partly drawn) [Example 246, N-[(1S)-2-[4-(3,5-dimethyl-1H-pyrazol-4-yl)anilino]-1-[(1S,6R)-norcaran-7-yl]-2-oxo-ethyl]-2-methyl-pyrazole-3-carboxamide]
18 | < 100 | Cc1n[nH]c(C)c1-c1ccc(NC(=O)[C@@H](NC(=O)c2ccnn2C)[C@H]2CCc3c(F)cc(F)cc32)cc1 [Example 249, N-[(1S)-1-[(1S)-4,6-difluoroindan-1-yl]-2-[4-(3,5-dimethyl-1H-pyrazol-4-yl)anilino]-2-oxo-ethyl]-2-methyl-pyrazole-3-carboxamide]
19 | < 100 | Cc1n[nH]c(C)c1-c1ccc(NC(=O)[C@@H](NC(=O)c2ccnn2C)[C@H]2CCCC3(CC3)C2)cc1 [Example 250, N-[(1S)-2-[4-(3,5-dimethyl-1H-pyrazol-4-yl)anilino]-2-oxo-1-[(7S)-spiro[2.5]octan-7-yl]ethyl]-2-methyl-pyrazole-3-carboxamide]
20 | < 100 | Cc1n[nH]c(C)c1-c1ccc(NC(=O)C(NC(=O)c2ccnn2C(C)C)C2CCCC2C)cc1 (stereo not shown) [Example 251, N-[2-[4-(3,5-dimethyl-1H-pyrazol-4-yl)anilino]-1-(2-methylcyclopentyl)-2-oxo-ethyl]-2-isopropyl-pyrazole-3-carboxamide]
21 | > 1000 | Cc1n[nH]c(C)c1-c1ccc(NC(=O)[C@H](CC2CCC(F)(F)CC2)NC(=O)c2ccnn2C)cc1 [Example 253, N-[(1S)-1-[(4,4-difluorocyclohexyl)methyl]-2-[4-(3,5-dimethyl-1H-pyrazol-4-yl)anilino]-2-oxo-ethyl]-2-methyl-pyrazole-3-carboxamide]
22 | < 100 | Cc1n[nH]c(C)c1-c1ccc(NC(=O)C(NC(=O)c2ccnn2C)[C@H]2CCCc3ccc(F)cc32)cc1 (stereo partly shown) [Example 261]
23 | 100 to 1000 | Cc1n[nH]c(C)c1-c1ccc(NC(=O)[C@@H](NC(=O)c2ccnn2C)[C@@H]2CCCc3c(F)cc(Br)cc32)cc1 [Example 262]
24 | 100 to 1000 | Cc1n[nH]c(C)c1-c1ccc(NC(=O)[C@@H](NC(=O)c2conc2C(C)C)C2CCC3(CC2)CC3)cc1 [Example 263, N-[(1S)-2-[4-(3,5-dimethyl-1H-pyrazol-4-yl)anilino]-2-oxo-1-spiro[2.5]octan-6-yl-ethyl]-3-isopropyl-isoxazole-4-carboxamidet]
25 | 100 to 1000 | CCn1nccc1C(=O)N[C@H](C(=O)Nc1ccc(-c2c(C)n[nH]c2C)cc1)C1CCC2(CC1)CC2 [Example 264, N-[(1S)-2-[4-(3,5-dimethyl-1H-pyrazol-4-yl)anilino]-2-oxo-1-spiro[2.5]octan-6-yl-ethyl]-2-ethyl-pyrazole-3-carboxamide]
26 | 100 to 1000 | Cc1n[nH]c(C)c1-c1ccc(NC(=O)C(NC(=O)c2ccnn2C(C)C)C2CCC(C)(C)C2)cc1 (stereo not shown) [Example 265, N-[1-(3,3-dimethylcyclopentyl)-2-[4-(3,5-dimethyl-1H-pyrazol-4-yl)anilino]-2-oxo-ethyl]-2-isopropyl-pyrazole-3-carboxamide]
27 | 100 to 1000 | Cc1n[nH]c(C)c1-c1ccc(NC(=O)C(NC(=O)c2ccnn2C)C2CCC(C)(C)C2)cc1 (stereo not shown) [Example 266, N-[1-(3,3-dimethylcyclopentyl)-2-[4-(3,5-dimethyl-1H-pyrazol-4-yl)anilino]-2-oxo-ethyl]-2-methyl-pyrazole-3-carboxamide]
28 | > 1000 | Cc1n[nH]c(C)c1-c1ccc(NC(=O)[C@@H](NC(=O)c2ccnn2C)C2[C@H]3CCC[C@@H]23)cc1 (stereo partly drawn) [Example 267, N-[(1S)-1-[(1S,5R)-6-bicyclo[3.1.0]hexanyl]-2-[4-(3,5-dimethyl-1H-pyrazol-4-yl)anilino]-2-oxo-ethyl]-2-methyl-pyrazole-3-carboxamide]
29 | 100 to 1000 | CCn1nncc1C(=O)N[C@H](C(=O)Nc1ccc(-c2c(C)n[nH]c2C)cc1)C(C1CC1)C1CC1 [Example 270, N-[(1S)-1-(dicyclopropylmethyl)-2-[4-(3,5-dimethyl-1H-pyrazol-4-yl)anilino]-2-oxo-ethyl]-3-ethyl-triazole-4-carboxamide]
30 | < 100 | CCn1nncc1C(=O)N[C@H](C(=O)Nc1ccc(-c2c(C)n[nH]c2C)cc1)C(C1CCC1)C1CCC1 [Example 271, N-[(1S)-1-[di(cyclobutyl)methyl]-2-[4-(3,5-dimethyl-1H-pyrazol-4-yl)anilino]-2-oxo-ethyl]-3-ethyl-triazole-4-carboxamide]
31 | < 100 | Cc1n[nH]c(C)c1-c1ccc(NC(=O)[C@@H](NC(=O)c2cnnn2C)C(C2CCC2)C2CCC2)cc1 [Example 272, N-[(1S)-1-[di(cyclobutyl)methyl]-2-[4-(3,5-dimethyl-1H-pyrazol-4-yl)anilino]-2-oxo-ethyl]-3-methyl-triazole-4-carboxamide]
